According to patent publication US20240400577A1, “MODULATORS OF PROTEIN KINASES” (VIBLIOME THERAPEUTICS, LLC, priority 2021, published 2024):

What was measured:
Experiment in all cases: Kinase panel enzymatic inhibition assay (Nanosyn)
Type in all cases: biochemical
ZAK = molecular target: T1, ZAK (Homo sapiens, UniProt Q9NYL2); settings: compound 5 μM; ATP at Km; 30-minute pre-incubation
T1 construct: Nanosyn (contract laboratory that ran the panel)
How it was run: (§1)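 Read-out is percent inhibition or IC50, obtained by mobility shift, ADP detection or time-resolved fluorescence detection. Each kinase was run with ATP at its Km, and compound at 5 μM was pre-incubated for 30 minutes.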

HGK = molecular target: T2, HGK (Homo sapiens, UniProt O95819); settings: compound 5 μM; ATP at Km; 30-minute pre-incubation
T2 construct: purchased Nanosyn (contract screening)
How it was run: as §1

Abl1 = molecular target: T3, Abl1 (Homo sapiens, UniProt P00519); settings: compound 5 μM; ATP at Km; 30-minute pre-incubation
T3 construct: purchased Nanosyn (contract screening)
How it was run: as §1

MNK2 = molecular target: T4, MNK2 (Homo sapiens, UniProt Q9HBH9); settings: compound 5 μM; ATP at Km; 30-minute pre-incubation
T4 construct: Nanosyn (contract laboratory that ran the panel)
How it was run: as §1

PDGFRa = molecular target: T5, PDGFRa (Homo sapiens, UniProt P16234); settings: compound 5 μM; ATP at Km; 30-minute pre-incubation
T5 construct: Nanosyn (contract laboratory that ran the panel)
How it was run: as §1

p38b = molecular target: T6, p38b (Homo sapiens, UniProt Q15759); settings: compound 5 μM; ATP at Km; 30-minute pre-incubation
T6 construct: Nanosyn (contract laboratory that ran the panel)
How it was run: as §1

LCK = molecular target: T7, LCK (Homo sapiens, UniProt P06239); settings: ATP at Km, 30-minute pre-incubation; for inhibition at 5 µM: compound 5 μM; for IC50: read-out: kinase inhibition in terms of IC50, LCK
T7 construct: purchased Nanosyn (contract screening)
How it was run: as §1

KDR = molecular target: T8, KDR (Homo sapiens, UniProt P35968); settings: compound 5 μM; ATP at Km; 30-minute pre-incubation
T8 construct: purchased Nanosyn (contract screening)
How it was run: as §1

COT1 = molecular target: T9, COT1 (Homo sapiens, UniProt P41279); settings: compound 5 μM; ATP at Km; 30-minute pre-incubation
T9 construct: purchased Nanosyn (contract screening)
How it was run: as §1

YES = molecular target: T10, YES (Homo sapiens, UniProt P07947); settings: compound 5 μM; ATP at Km; 30-minute pre-incubation
T10 construct: Nanosyn (contract laboratory that ran the panel)
How it was run: as §1

LYNb = molecular target: T11, LYNb (Homo sapiens, UniProt P07948); settings: compound 5 μM; ATP at Km; 30-minute pre-incubation
T11 construct: purchased Nanosyn (contract screening)
How it was run: as §1

KIT = molecular target: T12, KIT (Homo sapiens, UniProt P10721); settings: compound 5 μM; ATP at Km; 30-minute pre-incubation
T12 construct: purchased Nanosyn (contract screening)
How it was run: as §1

CSF1R = molecular target: T13, CSF1R (Homo sapiens, UniProt P07333); settings: compound 5 μM; ATP at Km; 30-minute pre-incubation
T13 construct: purchased Nanosyn (contract screening)
How it was run: as §1

ERBB4 = molecular target: T14, ERBB4 (Homo sapiens, UniProt Q15303); settings: compound 5 μM; ATP at Km; 30-minute pre-incubation
T14 construct: purchased Nanosyn (contract screening)
How it was run: as §1

TAOK2 = molecular target: T15, TAOK2 (Homo sapiens, UniProt Q9UL54); settings: compound 5 μM; ATP at Km; 30-minute pre-incubation
T15 construct: Nanosyn (contract laboratory that ran the panel)
T15 sequence (Q9UL54 1-1235): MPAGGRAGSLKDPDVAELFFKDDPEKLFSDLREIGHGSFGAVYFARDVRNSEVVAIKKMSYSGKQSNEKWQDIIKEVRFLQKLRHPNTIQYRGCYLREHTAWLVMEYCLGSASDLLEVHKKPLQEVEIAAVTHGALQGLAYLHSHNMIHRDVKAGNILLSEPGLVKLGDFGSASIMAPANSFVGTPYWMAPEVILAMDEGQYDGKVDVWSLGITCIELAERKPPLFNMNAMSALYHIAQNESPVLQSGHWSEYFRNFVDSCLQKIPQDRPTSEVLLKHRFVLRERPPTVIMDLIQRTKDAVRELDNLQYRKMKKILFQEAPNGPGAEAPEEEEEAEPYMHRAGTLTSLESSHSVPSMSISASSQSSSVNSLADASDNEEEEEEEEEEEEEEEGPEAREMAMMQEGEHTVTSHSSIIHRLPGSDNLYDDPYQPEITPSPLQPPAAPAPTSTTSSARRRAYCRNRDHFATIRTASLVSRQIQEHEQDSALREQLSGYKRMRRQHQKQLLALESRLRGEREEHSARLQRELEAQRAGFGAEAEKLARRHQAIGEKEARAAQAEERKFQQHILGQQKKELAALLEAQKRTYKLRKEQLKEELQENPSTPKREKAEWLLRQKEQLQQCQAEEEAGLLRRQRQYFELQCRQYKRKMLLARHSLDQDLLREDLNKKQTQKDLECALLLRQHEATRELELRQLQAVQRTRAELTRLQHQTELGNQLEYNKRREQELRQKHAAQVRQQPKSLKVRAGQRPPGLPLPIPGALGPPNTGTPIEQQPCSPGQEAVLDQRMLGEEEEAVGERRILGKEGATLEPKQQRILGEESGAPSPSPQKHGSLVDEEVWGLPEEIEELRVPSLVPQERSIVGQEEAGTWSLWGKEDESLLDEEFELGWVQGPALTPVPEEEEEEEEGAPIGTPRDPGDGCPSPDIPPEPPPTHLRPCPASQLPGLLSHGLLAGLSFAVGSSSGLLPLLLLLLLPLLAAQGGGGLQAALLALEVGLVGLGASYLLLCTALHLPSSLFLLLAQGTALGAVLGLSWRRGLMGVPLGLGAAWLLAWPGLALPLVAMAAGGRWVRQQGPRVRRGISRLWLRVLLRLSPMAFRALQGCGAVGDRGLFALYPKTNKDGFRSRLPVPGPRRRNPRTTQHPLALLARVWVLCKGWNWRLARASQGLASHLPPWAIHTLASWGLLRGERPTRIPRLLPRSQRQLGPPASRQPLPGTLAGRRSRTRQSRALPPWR
How it was run: as §1

SYK = molecular target: T16, SYK (Homo sapiens, UniProt P43405); settings: ATP at Km; 30-minute pre-incubation; read-out: kinase inhibition in terms of IC50, SYK
T16 construct: purchased Nanosyn
How it was run: as §1

T1 sequence (Q9NYL2 whole entry): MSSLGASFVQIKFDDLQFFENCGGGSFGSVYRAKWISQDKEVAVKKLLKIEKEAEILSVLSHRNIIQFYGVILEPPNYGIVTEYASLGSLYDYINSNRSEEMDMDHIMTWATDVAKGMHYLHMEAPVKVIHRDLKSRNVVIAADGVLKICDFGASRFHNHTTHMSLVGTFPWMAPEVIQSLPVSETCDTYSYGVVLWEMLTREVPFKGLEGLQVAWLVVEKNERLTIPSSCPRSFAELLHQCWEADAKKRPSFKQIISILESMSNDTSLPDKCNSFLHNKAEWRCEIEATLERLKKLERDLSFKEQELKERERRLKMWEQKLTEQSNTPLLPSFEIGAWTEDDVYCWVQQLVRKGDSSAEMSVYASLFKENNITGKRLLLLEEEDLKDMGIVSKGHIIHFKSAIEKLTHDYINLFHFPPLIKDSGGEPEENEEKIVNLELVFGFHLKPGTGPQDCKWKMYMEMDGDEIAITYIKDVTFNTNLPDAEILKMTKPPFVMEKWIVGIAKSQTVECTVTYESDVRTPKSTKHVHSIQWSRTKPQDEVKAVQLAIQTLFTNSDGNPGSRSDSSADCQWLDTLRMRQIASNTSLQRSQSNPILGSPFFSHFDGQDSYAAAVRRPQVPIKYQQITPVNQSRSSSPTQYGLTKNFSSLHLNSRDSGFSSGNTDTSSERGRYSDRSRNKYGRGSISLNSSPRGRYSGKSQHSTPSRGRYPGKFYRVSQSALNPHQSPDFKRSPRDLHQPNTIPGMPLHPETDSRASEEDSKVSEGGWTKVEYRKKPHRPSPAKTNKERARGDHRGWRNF
T11 sequence (P07948 1-491 isoform P07948-2): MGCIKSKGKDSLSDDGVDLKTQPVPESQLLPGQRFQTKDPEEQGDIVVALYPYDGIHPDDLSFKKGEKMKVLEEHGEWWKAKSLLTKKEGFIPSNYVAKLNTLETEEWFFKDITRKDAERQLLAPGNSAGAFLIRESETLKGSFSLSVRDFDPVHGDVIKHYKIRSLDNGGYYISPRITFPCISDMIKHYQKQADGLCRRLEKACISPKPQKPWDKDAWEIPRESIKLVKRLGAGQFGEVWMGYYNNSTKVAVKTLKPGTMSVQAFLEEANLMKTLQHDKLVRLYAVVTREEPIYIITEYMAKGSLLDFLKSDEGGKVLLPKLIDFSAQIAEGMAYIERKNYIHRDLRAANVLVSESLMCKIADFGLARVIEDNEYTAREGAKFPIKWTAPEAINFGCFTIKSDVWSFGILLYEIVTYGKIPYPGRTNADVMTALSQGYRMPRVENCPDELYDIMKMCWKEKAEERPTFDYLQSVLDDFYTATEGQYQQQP
T9 sequence (P41279 whole entry): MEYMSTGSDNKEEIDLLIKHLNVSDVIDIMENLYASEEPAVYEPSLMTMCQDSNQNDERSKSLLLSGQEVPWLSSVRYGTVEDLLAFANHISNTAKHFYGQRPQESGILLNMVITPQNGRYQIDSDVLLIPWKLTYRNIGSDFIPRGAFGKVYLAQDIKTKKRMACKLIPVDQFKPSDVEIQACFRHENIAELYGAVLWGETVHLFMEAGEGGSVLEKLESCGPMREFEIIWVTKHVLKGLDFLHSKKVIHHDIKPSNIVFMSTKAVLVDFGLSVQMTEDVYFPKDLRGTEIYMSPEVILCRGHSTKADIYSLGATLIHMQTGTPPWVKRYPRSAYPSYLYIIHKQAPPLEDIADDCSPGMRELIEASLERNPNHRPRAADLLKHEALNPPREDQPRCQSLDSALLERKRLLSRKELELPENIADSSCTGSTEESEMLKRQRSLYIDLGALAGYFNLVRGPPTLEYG
T4 sequence (Q9HBH9 whole entry): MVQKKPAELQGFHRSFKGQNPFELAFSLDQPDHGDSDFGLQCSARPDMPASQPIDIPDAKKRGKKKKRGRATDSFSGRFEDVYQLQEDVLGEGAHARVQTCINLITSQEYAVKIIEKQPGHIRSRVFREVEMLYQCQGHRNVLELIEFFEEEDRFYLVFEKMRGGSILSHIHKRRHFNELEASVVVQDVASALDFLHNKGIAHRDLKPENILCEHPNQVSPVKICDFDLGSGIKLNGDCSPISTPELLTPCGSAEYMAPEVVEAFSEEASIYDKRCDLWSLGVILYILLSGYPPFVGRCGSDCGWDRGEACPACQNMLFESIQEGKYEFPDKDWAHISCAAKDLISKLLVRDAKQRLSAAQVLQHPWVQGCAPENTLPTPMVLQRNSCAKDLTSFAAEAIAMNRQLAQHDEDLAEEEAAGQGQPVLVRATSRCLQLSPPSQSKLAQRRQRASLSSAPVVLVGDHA
T6 sequence (Q15759 whole entry): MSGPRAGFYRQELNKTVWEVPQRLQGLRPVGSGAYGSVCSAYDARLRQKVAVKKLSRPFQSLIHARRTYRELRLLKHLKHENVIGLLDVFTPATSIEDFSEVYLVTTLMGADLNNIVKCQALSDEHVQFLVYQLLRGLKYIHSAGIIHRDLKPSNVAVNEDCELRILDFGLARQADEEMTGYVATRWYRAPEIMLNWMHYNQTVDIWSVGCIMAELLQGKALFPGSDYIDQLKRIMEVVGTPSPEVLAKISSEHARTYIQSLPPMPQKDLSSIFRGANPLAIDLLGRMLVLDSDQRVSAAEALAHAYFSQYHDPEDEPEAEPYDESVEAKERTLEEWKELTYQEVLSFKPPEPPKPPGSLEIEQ
T12 sequence (P10721 26-976): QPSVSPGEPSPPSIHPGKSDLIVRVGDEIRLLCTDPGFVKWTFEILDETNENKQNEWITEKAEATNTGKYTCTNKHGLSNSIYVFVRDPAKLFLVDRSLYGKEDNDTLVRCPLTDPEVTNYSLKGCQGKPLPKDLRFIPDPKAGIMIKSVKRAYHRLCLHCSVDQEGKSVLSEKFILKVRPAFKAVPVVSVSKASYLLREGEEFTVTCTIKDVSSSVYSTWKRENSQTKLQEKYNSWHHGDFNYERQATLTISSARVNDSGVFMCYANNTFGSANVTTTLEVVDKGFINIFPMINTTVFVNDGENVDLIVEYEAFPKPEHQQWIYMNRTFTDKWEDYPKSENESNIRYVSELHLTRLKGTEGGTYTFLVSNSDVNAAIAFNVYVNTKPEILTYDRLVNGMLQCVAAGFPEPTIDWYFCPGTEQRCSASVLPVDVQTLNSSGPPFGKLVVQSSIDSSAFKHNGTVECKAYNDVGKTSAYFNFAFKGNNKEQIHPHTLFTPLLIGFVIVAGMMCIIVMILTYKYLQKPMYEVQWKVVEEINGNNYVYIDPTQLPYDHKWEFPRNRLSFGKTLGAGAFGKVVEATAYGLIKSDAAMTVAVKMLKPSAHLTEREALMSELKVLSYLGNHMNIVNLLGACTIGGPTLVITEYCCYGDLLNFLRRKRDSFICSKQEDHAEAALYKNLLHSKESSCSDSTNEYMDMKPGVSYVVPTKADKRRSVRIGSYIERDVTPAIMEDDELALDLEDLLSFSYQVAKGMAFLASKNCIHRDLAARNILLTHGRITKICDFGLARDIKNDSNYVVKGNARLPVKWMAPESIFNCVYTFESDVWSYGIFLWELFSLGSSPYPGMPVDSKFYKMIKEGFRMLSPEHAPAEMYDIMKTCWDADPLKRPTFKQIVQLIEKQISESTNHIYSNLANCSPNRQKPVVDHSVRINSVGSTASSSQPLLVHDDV
T13 sequence (P07333 20-972): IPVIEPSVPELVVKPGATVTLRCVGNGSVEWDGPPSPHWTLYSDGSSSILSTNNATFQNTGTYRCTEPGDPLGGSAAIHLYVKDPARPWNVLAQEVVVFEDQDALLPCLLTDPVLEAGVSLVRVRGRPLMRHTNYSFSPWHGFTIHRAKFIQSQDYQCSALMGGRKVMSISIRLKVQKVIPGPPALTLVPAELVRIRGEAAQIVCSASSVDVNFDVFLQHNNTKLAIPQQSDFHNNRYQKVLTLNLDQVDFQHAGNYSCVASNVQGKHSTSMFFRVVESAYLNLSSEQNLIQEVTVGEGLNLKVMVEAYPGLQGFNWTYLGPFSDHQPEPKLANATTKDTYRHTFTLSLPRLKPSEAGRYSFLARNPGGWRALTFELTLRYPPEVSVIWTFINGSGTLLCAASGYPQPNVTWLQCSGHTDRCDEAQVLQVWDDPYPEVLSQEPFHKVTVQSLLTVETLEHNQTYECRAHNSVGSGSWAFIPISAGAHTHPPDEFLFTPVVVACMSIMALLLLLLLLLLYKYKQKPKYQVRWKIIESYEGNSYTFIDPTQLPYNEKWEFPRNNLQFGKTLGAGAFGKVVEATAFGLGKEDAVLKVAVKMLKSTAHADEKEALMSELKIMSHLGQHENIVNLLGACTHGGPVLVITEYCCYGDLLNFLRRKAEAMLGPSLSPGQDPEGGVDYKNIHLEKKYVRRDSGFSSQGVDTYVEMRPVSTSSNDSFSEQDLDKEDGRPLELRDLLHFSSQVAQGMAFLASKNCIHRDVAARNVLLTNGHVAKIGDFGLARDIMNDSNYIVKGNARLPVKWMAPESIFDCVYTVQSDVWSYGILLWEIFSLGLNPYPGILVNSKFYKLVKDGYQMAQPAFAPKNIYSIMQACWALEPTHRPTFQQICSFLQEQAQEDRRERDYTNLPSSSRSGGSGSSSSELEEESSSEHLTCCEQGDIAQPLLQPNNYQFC
T7 sequence (P06239 whole entry): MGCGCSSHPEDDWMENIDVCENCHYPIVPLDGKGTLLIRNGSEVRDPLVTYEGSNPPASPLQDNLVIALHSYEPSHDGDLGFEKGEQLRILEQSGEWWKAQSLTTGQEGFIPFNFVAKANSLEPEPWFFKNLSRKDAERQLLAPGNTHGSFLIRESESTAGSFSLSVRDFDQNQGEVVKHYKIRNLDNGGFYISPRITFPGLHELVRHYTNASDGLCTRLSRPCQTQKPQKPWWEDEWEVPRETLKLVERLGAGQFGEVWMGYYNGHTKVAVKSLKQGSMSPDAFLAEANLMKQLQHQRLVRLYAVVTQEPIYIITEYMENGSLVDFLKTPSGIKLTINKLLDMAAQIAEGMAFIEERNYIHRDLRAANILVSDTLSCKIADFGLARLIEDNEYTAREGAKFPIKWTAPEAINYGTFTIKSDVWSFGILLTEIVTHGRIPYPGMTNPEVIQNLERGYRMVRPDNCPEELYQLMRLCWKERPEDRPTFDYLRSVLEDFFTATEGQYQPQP

Compound | inhibition at 5 µM (ZAK) | inhibition at 5 µM (HGK) | inhibition at 5 µM (Abl1) | inhibition at 5 µM (MNK2) | inhibition at 5 µM (PDGFRa) | inhibition at 5 µM (p38b) | inhibition at 5 µM (LCK) | inhibition at 5 µM (KDR) | inhibition at 5 µM (COT1) | inhibition at 5 µM (YES) | inhibition at 5 µM (LYNb) | inhibition at 5 µM (KIT) | inhibition at 5 µM (CSF1R) | inhibition at 5 µM (ERBB4) | inhibition at 5 µM (TAOK2) | IC50 (LCK) | IC50 (SYK)
Cc1ccc(NC(=O)c2cc(S(C)(=O)=O)n(-c3ccc(F)cc3)n2)cc1Nc1nccc(-c2cccnc2N)n1 [Ex13, N-(3-((4-(2-aminopyridin-3-yl)pyrimidin-2-yl)amino)-4-methylphenyl)-1-(4-fluorophenyl)-5-(methylsulfonyl)-1H-pyrazole-3-carboxamide] | < 79% | < 79% | ≥ 95% | < 79% | ≥ 95% | < 79% | 90 to 94% | < 79% | < 79% | < 79% | ≥ 95% | ≥ 95% | ≥ 95% | 80 to 89% | < 79% | – | –
CCOC(=O)Nc1cn2nc(Nc3cc(NC(=O)c4cc(S(C)(=O)=O)n(-c5ccc(F)cc5)n4)ccc3C)ccc2n1 [Ex15, ethyl (6-((5-(1-(4-fluorophenyl)-5-(methylsulfonyl)-1H-pyrazole-3-carboxamido)-2-methylphenyl)amino)imidazo[1,2-b]pyridazin-2-yl)carbamate] | < 79% | < 79% | ≥ 95% | < 79% | ≥ 95% | 80 to 89% | ≥ 95% | 80 to 89% | < 79% | ≥ 95% | ≥ 95% | ≥ 95% | ≥ 95% | < 79% | < 79% | – | –
COc1cc2nccc(Oc3ccc(NC(=O)c4cc(S(C)(=O)=O)n(-c5ccc(F)cc5)n4)c(F)c3)c2cc1OC [Ex71, N-(4-((6,7-dimethoxyquinolin-4-yl)oxy)-2-fluorophenyl)-1-(4-fluorophenyl)-5-(methylsulfonyl)-1H-pyrazole-3-carboxamide] | – | – | – | – | – | – | – | – | – | – | – | – | – | – | – | < 500 nM | ≥ 10 µM
COc1cc2nccc(Oc3ccc(NC(=O)c4cc(S(C)(=O)=O)n(-c5ccc(F)cc5)n4)cc3F)c2cc1OC [Ex73, N-(4-((6,7-dimethoxyquinolin-4-yl)oxy)-3-fluorophenyl)-1-(4-fluorophenyl)-5-(methylsulfonyl)-1H-pyrazole-3-carboxamide] | – | – | – | – | – | – | – | – | – | – | – | – | – | – | – | 500 to 1000 nM | ≥ 10 µM

The remaining lines, values ahead:

inhibition at 5 µM (ZAK) | inhibition at 5 µM (HGK) | inhibition at 5 µM (Abl1) | inhibition at 5 µM (MNK2) | inhibition at 5 µM (PDGFRa) | inhibition at 5 µM (p38b) | inhibition at 5 µM (LCK) | inhibition at 5 µM (KDR) | inhibition at 5 µM (COT1) | inhibition at 5 µM (YES) | inhibition at 5 µM (LYNb) | inhibition at 5 µM (KIT) | inhibition at 5 µM (CSF1R) | inhibition at 5 µM (ERBB4) | inhibition at 5 µM (TAOK2) | IC50 (LCK) | IC50 (SYK) | Compound
< 79% | < 79% | < 79% | < 79% | < 79% | < 79% | < 79% | < 79% | < 79% | < 79% | < 79% | < 79% | < 79% | < 79% | 80 to 89% | – | – | Cc1ccc(NC(=O)c2cc(S(C)(=O)=O)n(-c3ccc(F)cc3)n2)cc1-c1cc(N2CCOCC2)c(=O)n(C)c1 [Ex12, 1-(4-fluorophenyl)-N-(4-methyl-3-(1-methyl-5-morpholino-6-oxo-1,6-dihydropyridin-3-yl)phenyl)-5-(methylsulfonyl)-1H-pyrazole-3-carboxamide]
80 to 89% | < 79% | < 79% | < 79% | < 79% | < 79% | ≥ 95% | 90 to 94% | < 79% | < 79% | ≥ 95% | 90 to 94% | 90 to 94% | < 79% | < 79% | – | – | Cc1ccc(NC(=O)c2cc(S(C)(=O)=O)n(-c3ccc(F)cc3)n2)cc1C#Cc1cnc2cccnn12 [Ex14, 1-(4-fluorophenyl)-N-(3-(imidazo[1,2-b]pyridazin-3-ylethynyl)-4-methylphenyl)-5-(methylsulfonyl)-1H-pyrazole-3-carboxamide]
< 79% | < 79% | < 79% | < 79% | < 79% | < 79% | < 79% | < 79% | < 79% | < 79% | < 79% | < 79% | < 79% | < 79% | < 79% | – | – | CNC(=O)c1cc(Oc2ccc(NC(=O)c3cc(S(C)(=O)=O)n(-c4ccc(F)cc4)n3)c(F)c2)ccn1 [Ex17, 4-(3-fluoro-4-(1-(4-fluorophenyl)-5-(methylsulfonyl)-1H-pyrazole-3-carboxamido)phenoxy)-N-methylpicolinamide]
< 79% | < 79% | ≥ 95% | < 79% | 90 to 94% | 80 to 89% | ≥ 95% | < 79% | < 79% | 90 to 94% | < 79% | 80 to 89% | 80 to 89% | < 79% | < 79% | – | – | CCOC(=O)Nc1cn2nc(Nc3cc(NC(=O)c4cc([S+](C)[O-])n(-c5ccc(F)cc5)n4)ccc3C)ccc2n1 (stereo not drawn) [Ex18, ethyl (6-((5-(1-(4-fluorophenyl)-5-(methylsulfinyl)-1H-pyrazole-3-carboxamido)-2-methylphenyl)amino)imidazo[1,2-b]pyridazin-2-yl)carbamate]
– | – | – | – | – | – | – | – | – | – | – | – | – | – | – | 500 to 1000 nM | 1 to 10 µM | COc1cc2nccc(Oc3ccc(NC(=O)c4cc(S(C)(=O)=O)n(-c5ccc(F)cc5)n4)cc3)c2cc1OC [Ex72, N-(4-((6,7-dimethoxyquinolin-4-yl)oxy)phenyl)-1-(4-fluorophenyl)-5-(methylsulfonyl)-1H-pyrazole-3-carboxamide]
